Results as given in patent US20260265273A1, “SOLID FORM OF FUSED RING COMPOUND, AND PREPARATION METHOD THEREFOR AND USE THEREOF” (APPLIED PHARMACEUTICAL SCIENCE, INC., priority 2022, published 2026).

Key:
[1] = Hygroscopicity test (DVS); assay type: physicochemical
Experimental: Dynamic vapor sorption (DVS) curves were acquired on a DVS Intrinsic in SMS (Surface Measurement Systems). The relative humidity at 25° C. was corrected with the deliquescence points of LiCl, Mg(NO3)2, and KCl.

[2] = Solid-state stability test (XRPD, HPLC purity); assay type: physicochemical
[3] = Solubility Test II (saturated solubility by HPLC); assay type: physicochemical; details: 37° C., 24 h
Experimental: Chromatographic column: Waters XTERRA RP18, 4.6 mm×150 mm, 3.5 μm or an equivalent chromatographic column. […] The gradient elution conditions are shown in Table 3-2. pH 4.5 acetate buffer: 0.59806 g of sodium acetate trihydrate was added to a 200-mL measuring flask and dissolved in an appropriate amount of water; 1.6 mL of glacial acetic acid was added; and the mixture was diluted to volume to obtain the pH 4.5 acetate buffer. pH 6.8 phosphate buffer: 1.38501 g of potassium dihydrogen phosphate and 0.18086 g of sodium hydroxide were added to the same 200-mL measuring flask; and the mixture was dissolved in water and diluted to volume to obtain the pH 6.8 phosphate buffer. 10.0 mL of each medium was precisely measured, and the media were placed into different 25-mL measuring flasks; an appropriate amount of each test crystal form was added; and the flasks were sealed and oscillated in an oscillator at 37° C. for 24 h to obtain supersaturated solutions. pH 6.8 phosphate buffer sample solution: the supersaturated solution prepared using the pH 6.8 phosphate buffer medium was filtered to obtain the pH 6.8 phosphate buffer sample solution. Water sample solution: the supersaturated solution prepared using the water medium was filtered to obtain the water sample solution. pH 4.5 acetate buffer sample solution: the supersaturated solution prepared using the pH 4.5 acetate buffer medium was filtered, and 1.0 mL of the filtrate was precisely measured and placed into a 10-mL measuring flask; the filtrate was diluted to volume with the pH 4.5 acetate buffer medium, and 1.0 mL of the solution was then precisely measured and placed into the 10-mL measuring flask; and the solution was diluted to volume with methanol to obtain the pH 4.5 acetate buffer sample solution. (ii) Preparation of crystal form A sample solution: pH 6.8 phosphate buffer sample solution: the supersaturated solution prepared using the pH 6.8 phosphate buffer medium was filtered to obtain the pH 6.8 phosphate buffer sample solution. Water sample solution: the supersaturated solution prepared using the water medium was filtered to obtain the water sample solution. pH 4.5 acetate buffer sample solution: the supersaturated solution prepared using the pH 4.5 acetate buffer medium was filtered, and 1.0 mL of the filtrate was precisely measured and placed into a 10-mL measuring flask; the filtrate was diluted to volume with the pH 4.5 acetate buffer medium, and 1.0 mL of the solution was then precisely measured and placed into a 25-mL measuring flask; and the solution was diluted to volume with methanol to obtain the pH 4.5 acetate buffer sample solution. Each medium sample solution was taken, 10 μL of each test sample solution was precisely measured and injected into a liquid chromatograph according to the chromatography conditions described above, and the chromatogram was recorded. The saturated solution degree of each medium was calculated according to the formula below. In the formula: WR=sample weight of control solution, mg; PR=purity factor of control; • AS=peak area of main peak in test solution: DS=dilution factor of test solution; • AR=peak area of main peak in control solution; DR=dilution factor of control solution;

[4] = Pharmacokinetic experiment in SD rats; assay type: in vivo; details: oral intragastric 10 mg/kg, 1 mg/mL in 5% DMSO in normal saline, compound I in plasma, 0.25-24 h
Experimental: Six SPF-grade SD rats were prepared and weighed before administration. The dose of administration was calculated based on the weight. […] These administration solutions were orally and intragastrically administered at 10 mg/kg. The rats were weighed before administration, and the dose of administration was calculated based on the weight. 3 rats were used for each crystal form. The administration solutions were orally and intragastrically administered, followed by collection of samples via the jugular vein or other suitable means at the following time points: 0.25 […], and 24 h. About 0.20 mL of each sample was collected, and the plasma was separated out by centrifugation within 2 h. The compound I was detected, and plasma drug concentration-time curves were plotted. The pharmacokinetic parameters were calculated by utilizing WinNonlin according to the plasma concentration data at different time points.

[5] = Crystal form change on drying or standing at room conditions; assay type: physicochemical
Experimental: 20 mg of the amorphous form Z prepared according to the method in Example 1 was weighed into a 3-mL vial. The solid was dissolved in 1.0-1.5 mL of solvent NMP (N-methylpyrrolidone), and the resulting mixture was filtered through a filter membrane to obtain a clear solution. About 4 mL of anti-solvent ACN was added to a 20-mL vial. The uncovered 3-mL vial containing the filtrate was placed into the 20-mL vial, and then the 20-mL vial was sealed and allowed to stand at room temperature. The solid was precipitated and collected to obtain the crystal form I. The X-ray powder diffraction pattern of this crystal form is shown in FIG. 9.
After drying in the air, the crystal form P was transformed to the anhydrous crystal form C. Thus, the crystal form P was determined to be a hydrate.

[6] = 1H-NMR analysis of salt crystal forms; assay type: physicochemical; details: DMSO-d6
Experimental: 1 g of the amorphous form Z prepared according to the method in Example 1 was weighed into a vial, and 14 mL of trichloromethane was added; the mixture was stirred at 35° C. for complete dissolution to obtain a solution 1; 102.64 mg of maleic acid was completely dissolved in 2 mL of ethanol to obtain a solution 2; 551 μL of the solution 2 was added to 0.7 mL of the solution 1 with stirring at room temperature, and no solid was precipitated; the mixture was stirred for 5 h and then placed at 4-8° C. overnight, and no solid was precipitated; 0.8 mL of methyl tert-butyl ether was added to obtain a turbid solution, and the turbid solution was stirred to obtain an oil; 0.4 mL of methyl tert-butyl ether was supplemented; and the mixture was successively stirred overnight, centrifuged, and dried in vacuum at 25° C. to obtain the crystal form T. The X-ray powder diffraction pattern of this crystal form is shown in FIG. 24A. […]

[7] = 25° C./60% RH/uncovered, 2 weeks
[8] = 25° C./60% RH/uncovered, 4 weeks
[9] = 25° C./60% RH/uncovered, 6 weeks
[10] = 40° C./75% RH/uncovered, 2 weeks
[11] = 40° C./75% RH/uncovered, 4 weeks
[12] = 40° C./75% RH/uncovered, 6 weeks
[13] = DVS, isothermal adsorption curve

In the case of `CCOc1cc(-c2ccc(N3CC4CC(C3)N4Cc3ccc(OC)nc3)nc2)c2c3cn[nH]c3nn2c1` (single isomer, unassigned) [Crystal form B], the hygroscopicity evaluation ([1]; DVS at 25° C., 0% RH-95% RH, according to Chinese Pharmacopoeia 2015 Edition) is reported as “slightly hygroscopic”, the hygroscopic weight gain ([1]; DVS, 25° C./80% RH, listed as crystal form B) is reported as “about 1.0%” and the “crystal form after the DVS test (XRPD)” value ([1]; after DVS test) is reported as “not changed”. For the same compound, the “Purity (area %)” value [2, 7] was 99.96 area %, the “Relative to initial purity (%)” value [2, 7] was 100.01% and the “Purity (area %)” value [2, 8] was 99.96 area %. For the same compound, the “Relative to initial purity (%)” value [2, 8] was 100.01%, the “Purity (area %)” value [2, 9] was 99.96 area % and the “Relative to initial purity (%)” value [2, 9] was 100.01%. The “Purity (area %)” value [2, 10] was 99.96 area %, the “Relative to initial purity (%)” value [2, 10] was 100.01% and the Crystal form change ([2]; 40° C./75% RH/uncovered, 2 weeks, XRPD) was “No change”. For the same compound, the “Purity (area %)” value [2, 11] was 99.96 area %, the “Relative to initial purity (%)” value [2, 11] was 100.01% and the “Purity (area %)” value [2, 12] was 99.96 area %. For the same compound, the “Relative to initial purity (%)” value [2, 12] was 100.01%, the “Purity (area %)” value ([2]; 60° C./sealed, 24 h) was 99.97 area % and the “Relative to initial purity (%)” value ([2]; 60° C./sealed, 24 h) was 100.01%. For the same compound, the “HPLC purity under the test conditions” value ([2]; all stability conditions (60° C. sealed 24 h; 25° C./60% RH and 40° C./75% RH uncovered 2, 4, 6 weeks)) was “not significantly reduced”, the “crystal form under the test conditions” value ([2]; all stability conditions, XRPD) was “not changed” and the Saturated solubility ([3]; Water) was 0.34 µg/mL. For the same compound, the Saturated solubility ([3]; pH 4.5 acetate buffer, listed as crystal form B) was 3107.54 µg/mL, the Saturated solubility ([3]; pH 6.8 phosphate buffer) was 0.02 µg/mL and the “AUC(0-t)” value [4] was 10424 ng·h/mL.
For `CCOc1cc(-c2ccc(N3CC4CC(C3)N4Cc3ccc(OC)nc3)nc2)c2c3cn[nH]c3nn2c1` [crystal form I], the “crystal form after drying” value ([5]; drying at room temperature) was “transformed to the crystal form A”.
With `CCOc1cc(-c2ccc(N3CC4CC(C3)N4Cc3ccc(OC)nc3)nc2)c2c3cn[nH]c3nn2c1` [crystal form P] the “crystal form of the wet sample after standing” value ([5]; placed in the air for about 10 min) was “transformation to the crystal form C”.
For `CCOc1cc(-c2ccc(N3CC4CC(C3)N4Cc3ccc(OC)nc3)nc2)c2c3cn[nH]c3nn2c1` [crystal form Q], the “crystal form after standing” value ([5]; placed at room temperature and room humidity) was “transferred to the hydrate crystal form M”.
For `CCOc1cc(-c2ccc(N3CC4CC(C3)N4Cc3ccc(OC)nc3)nc2)c2c3cn[nH]c3nn2c1` [crystal form R], the “RH at which the form started to significantly absorb water and underwent polymorphic transition to hydrate crystal form S” value [1, 13] was 50 % RH.
With `CCOc1cc(-c2ccc(N3CC4CC(C3)N4Cc3ccc(OC)nc3)nc2)c2c3cn[nH]c3nn2c1` [crystal form S] the “RH at which the form started to dehydrate and underwent polymorphic transition to anhydrous crystal form R” value [1, 13] was 40 % RH.
In the case of `CCOc1cc(-c2ccc(N3CC4CC(C3)N4Cc3ccc(OC)nc3)nc2)c2c3cn[nH]c3nn2c1` [crystal form T], the “stability in the 1H-NMR analysis” value [6] is reported as “decomposition occurred”.
